Test results taken from patent publication US20240268380A1, “USE OF ESSENTIAL OILS AS BIOSTIMULANTS FOR MYCELIA AND MUSHROOMS” (MYCELIANCE, priority 2021, published 2024).

Test system: Agaricus bisporus mycelium
Assay: Stimulation of the growth of Agaricus bisporus mycelium on PDA culture medium
Assay type: cell-based
Details: for effect on the growth of the Agaricus bisporus mycelium: purified terpene at 40 μL/L, TripleX make (Amycel)
Description: • Mixing, in a sterile container, the essential oil or oils or the terpene or terpenes selected according to the invention, with the surfactant or surfactants, in equal portions: […], therefore preparing 200 μl in total.
• Preparing 2 times 1 litre of PDA in accordance with the instructions of the supplier, in separate containers. • Sterilising the two solutions at the same time, 15 minutes at 121° C. in an autoclave.
• Waiting until the two solutions drop in temperature, to reach approximately 40° C. • Homogenising and then pouring the composition of biostimulants, into one of the two containers. • Pouring the same volume of the surfactant or surfactants used, into the second container. • Placing under stirring, and then pouring the 2 litres of solutions into annotated petri dishes. • Placing the petri dishes in an incubator at 23° C.±1° C. and 80% humidity.
• Inoculating all the petri dishes with the mushroom strain selected. • Re-placing the petri dishes in an incubator at 23° C.±1° C. and 80% humidity.
• After 7 days, tracing the contour of the mycelium under the petri dishes, with a fine marker. • Once again tracing the contour of the mycelium after 14 and 21 days following the inoculation. • Measuring its growth to within 0.5 mm, on 4 axes separated by 90°, for each petri dish. • Calculating the mean growths measured, then determining the percentage inhibition or biostimulation compared with the reference, which contains only the surfactant or surfactants, without the essential oil or oils or the terpene and terpenes use.
The manipulations for each essential oil tested were reproduced 40 times, using the Agaricus bisporus mycelium of Heirloom make, supplied by the American company Amycel.
The tests were performed on three strains of Agaricus bisporus (of Heirloom and TripleX makes from the company Amycel and Tuscan from the company Sylvan) with the purified terpene ([…]. […]

| Compound | effect on the growth of the Agaricus bisporus mycelium | effect on the growth of the mycelia of three strains of Agaricus bisporus (purified terpene, Heirloom and TripleX makes at 40 or 80 μL/L, Tuscan make at 80 or 100 μL/L, effect reinforced by increasing the concentration) |
| --- | --- | --- |
| CC1=CCC2CC1C2(C)C (stereo not drawn) [α-pinene, reference compound] | inhibiting effect |  |
| C=C1CCC2CC1C2(C)C (stereo not drawn) [β-pinene] | biostimulant effect | very marked effect of biostimulation |
